Reference: US20080194482A1, “Selective Apac2 Receptor Peptide Agonists” (priority 2005, published 2008)
Square brackets hold non-standard residues; d marks the D form. Peptide text beside a SMILES is read from it. * marks the point of attachment. Orn = NCCC[C@H](N)C(=O)O; Hexanoyl = CCCCCC(=O)*; Aib = CC(C)(N)C(=O)O

What was measured:
rat VPAC2 receptor = target: T1, rat VPAC2 receptor (Rattus norvegicus, UniProt P35000); test: DiscoveRx cAMP assay, in vitro potency at rat VPAC2 receptor; format: cell-based; details: CHO-PO cells transiently transfected with rat VPAC2; cAMP generation; mean of two independent runs
T1 construct: expressed in transfected cells; host or cells: CHO-PO (transient, Lipofectamine)
T1 sequence (P35000 23-437): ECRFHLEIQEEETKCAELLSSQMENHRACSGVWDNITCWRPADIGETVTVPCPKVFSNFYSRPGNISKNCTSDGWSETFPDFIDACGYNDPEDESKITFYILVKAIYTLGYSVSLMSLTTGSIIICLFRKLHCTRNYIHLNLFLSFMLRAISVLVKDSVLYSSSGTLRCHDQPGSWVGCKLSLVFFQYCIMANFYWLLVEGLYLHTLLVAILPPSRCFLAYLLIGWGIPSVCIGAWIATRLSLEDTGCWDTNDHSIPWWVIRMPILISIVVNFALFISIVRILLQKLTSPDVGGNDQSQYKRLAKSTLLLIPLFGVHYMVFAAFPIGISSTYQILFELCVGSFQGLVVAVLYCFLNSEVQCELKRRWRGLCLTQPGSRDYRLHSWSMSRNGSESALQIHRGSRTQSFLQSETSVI

human VPAC2 [1] = target: T2, human VPAC2 (Homo sapiens, UniProt P41587); test: Filter binding assay, 125I-labeled VIP tracer, VPAC2 membranes; details: read-out: Human VPAC2 Receptor Binding (IC50; nM)
T2 construct: expressed in transfected cells
T2 sequence (P41587 24-438): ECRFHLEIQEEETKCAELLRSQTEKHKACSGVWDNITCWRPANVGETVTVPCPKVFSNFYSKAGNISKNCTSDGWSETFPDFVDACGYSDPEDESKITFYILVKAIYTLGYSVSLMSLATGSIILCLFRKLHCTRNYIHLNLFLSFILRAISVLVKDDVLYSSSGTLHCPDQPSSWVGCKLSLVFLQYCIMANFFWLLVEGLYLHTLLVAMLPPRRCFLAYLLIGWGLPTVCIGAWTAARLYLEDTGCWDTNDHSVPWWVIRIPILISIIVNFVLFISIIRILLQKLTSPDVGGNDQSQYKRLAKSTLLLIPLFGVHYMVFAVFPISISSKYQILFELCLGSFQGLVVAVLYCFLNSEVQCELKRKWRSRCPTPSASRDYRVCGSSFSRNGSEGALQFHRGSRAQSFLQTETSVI

rat VPAC1 receptor = target: T3, rat VPAC1 receptor (Rattus norvegicus, UniProt P30083); test: DiscoveRx cAMP assay, in vitro potency at rat VPAC1 receptor; format: cell-based; details: CHO-PO cells transiently transfected with rat VPAC1; cAMP generation; mean of two independent runs
T3 construct: expressed in transfected cells; host or cells: CHO-PO (transient, Lipofectamine)
T3 sequence (P30083 31-459): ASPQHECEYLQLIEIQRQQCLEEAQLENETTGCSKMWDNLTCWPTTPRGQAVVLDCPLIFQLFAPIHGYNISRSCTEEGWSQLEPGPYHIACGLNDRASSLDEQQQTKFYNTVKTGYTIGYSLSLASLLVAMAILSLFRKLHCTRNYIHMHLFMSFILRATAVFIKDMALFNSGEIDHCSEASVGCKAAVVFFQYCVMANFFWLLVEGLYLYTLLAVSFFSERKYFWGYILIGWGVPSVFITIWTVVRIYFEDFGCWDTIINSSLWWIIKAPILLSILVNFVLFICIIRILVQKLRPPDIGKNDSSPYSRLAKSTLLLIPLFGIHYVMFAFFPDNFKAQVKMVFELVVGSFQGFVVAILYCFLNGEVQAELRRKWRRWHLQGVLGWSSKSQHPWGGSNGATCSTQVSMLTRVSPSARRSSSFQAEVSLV
Procedure: DiscoveRx: CHO-PO cells are transiently transfected with rat VPAC1 or VPAC2 receptor DNA using commercially available transfection reagents (Lipofectamine from Invitrogen). The cells are seeded at a density of 10,000/well in a 96-well plate and are allowed to grow for 3 days in […] culture medium. At day 3, the assay is performed.
On the day of the experiment, the medium is removed. Also, the cells are washed twice. The cells are incubated in assay buffer plus IBMX for 15 minutes at room temperature. Afterwards, the stimuli are added and are dissolved in assay buffer. The stimuli are present for 30 minutes. Then, the assay buffer is gently removed. The cell lysis reagent of the DiscoveRx cAMP kit is added. Thereafter, the standard protocol for developing the cAMP signal as described by the manufacturer is used (DiscoveRx Inc., USA). EC50 values for cAMP generation are calculated from the raw signal or are based on absolute cAMP levels as determined by a standard curve performed on each plate.
Results for each agonist are the mean of two independent runs. Rat VPAC1 and VPAC2 results are only generated using the DiscoveRx assay.

human VPAC2 [2] = target: T2, human VPAC2; test: Alpha screen cAMP assay, in vitro potency at human VPAC2 receptor; format: cell-based; details: cAMP generation; single result from two analyses in a single run, some values average of more than one experiment
human PAC1 = target: T4, human PAC1 (Homo sapiens, UniProt P41586); test: Filter binding assay, 125I-labeled PACAP-27 tracer, PAC1 membranes; details: read-out: Human PAC1 Receptor Binding (IC50; nM)
T4 construct: expressed in transfected cells
T4 sequence (P41586 21-468): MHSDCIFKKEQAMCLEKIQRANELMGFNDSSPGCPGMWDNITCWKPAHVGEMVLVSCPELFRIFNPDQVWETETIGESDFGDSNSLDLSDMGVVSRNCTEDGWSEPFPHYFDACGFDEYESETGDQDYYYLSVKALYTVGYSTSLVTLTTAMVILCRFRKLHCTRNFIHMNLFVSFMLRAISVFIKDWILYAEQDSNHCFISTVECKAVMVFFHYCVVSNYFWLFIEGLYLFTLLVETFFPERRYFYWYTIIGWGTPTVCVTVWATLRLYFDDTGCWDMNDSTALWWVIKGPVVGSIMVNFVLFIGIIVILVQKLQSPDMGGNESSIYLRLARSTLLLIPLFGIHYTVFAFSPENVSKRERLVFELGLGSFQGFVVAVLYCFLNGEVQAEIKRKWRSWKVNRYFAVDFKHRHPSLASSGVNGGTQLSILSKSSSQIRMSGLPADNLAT
Procedure: For this assay, the solutions and equipment include:
Presoak solution: 0.5% Polyethyleneamine in Aqua dest
Buffer for flushing filter plates: 25 mM HEPES pH 7.4
Blocking buffer: 25 mM HEPES pH 7.4; 0.2% protease free BSA
Assay buffer: 25 mM HEPES pH 7.4; 0.5% protease free BSA
Dilution and assay plate: PS-Microplate, U form
Filtration Plate: Multiscreen FB Opaque Plate; 1.0 μM Type B Glasfiber filter
In order to prepare the filter plates, the presoak solution is aspirated by vacuum filtration. The plates are flushed twice with 200 μL flush buffer. 200 μL blocking buffer is added to the filter plate. The filter plate is then incubated with 200 μL presoak solution for 1 hour at room temperature.
The assay plate is filled with 25 μL assay buffer, 25 μL membranes (2.5 μg) suspended in assay buffer, 25 μL compound (agonist) in assay buffer, and 25 μL tracer (about 40000 cpm) in assay buffer. The filled plate is incubated for 1 hour with shaking.
The transfer from assay plate to filter plate is conducted. The blocking buffer is aspirated by vacuum filtration and washed two times with flush buffer. 90 μL is transferred from the assay plate to the filter plate. The 90 μL transferred from assay plate is aspirated and washed three times with 200 μL flush buffer. The plastic support is removed. It is dried for 1 hour at 60° C. 30 μL Microscint is added. The count is performed.

[3] = Rat serum stability (activity remaining, CHO-VPAC2 DiscoveRx read-out); format: in vitro ADME
How it was run: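 Peptides preincubated overnight in rat serum at 37 °C without aprotinin versus 4 °C with aprotinin, then tested as 11-point 5× dilutions in duplicate on CHO-VPAC2 cells, 30 min at RT. cAMP measured by DiscoveRx kit against standards; EC50 derived for each aliquot.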

human VPAC1 = target: T5, human VPAC1 (Homo sapiens, UniProt P32241); test: Filter binding assay, 125I-labeled VIP tracer, VPAC1 membranes; details: read-out: Human VPAC1 Receptor Binding (IC50; nM)
T5 construct: expressed in transfected cells
T5 sequence (P32241 31-457): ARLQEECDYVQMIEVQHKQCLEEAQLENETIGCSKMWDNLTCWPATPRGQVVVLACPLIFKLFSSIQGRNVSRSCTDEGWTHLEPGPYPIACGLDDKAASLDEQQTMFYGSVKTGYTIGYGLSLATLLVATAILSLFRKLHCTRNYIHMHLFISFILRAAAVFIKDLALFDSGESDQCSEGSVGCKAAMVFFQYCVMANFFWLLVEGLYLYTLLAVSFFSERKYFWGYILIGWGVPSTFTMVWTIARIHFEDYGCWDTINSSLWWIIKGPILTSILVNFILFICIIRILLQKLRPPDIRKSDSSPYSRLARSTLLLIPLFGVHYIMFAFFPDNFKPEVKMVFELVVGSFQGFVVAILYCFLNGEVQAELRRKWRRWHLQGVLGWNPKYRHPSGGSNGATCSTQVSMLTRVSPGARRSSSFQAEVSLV

Compound	EC50 (rat VPAC2 receptor) [nM]	IC50 (human VPAC2 [1]) [nM]	EC50 (rat VPAC1 receptor) [nM]	EC50 (human VPAC2 [2]) [nM]	IC50 (human PAC1) [nM]	Rat Serum Stability (estimated purity in % after overnight incub.) [3] [%]	IC50 (human VPAC1) [nM]
CCCCCC(=O)N[C@@H](Cc1c[nH]cn1)C(=O)N[C@@H](CO)C(=O)N[C@@H](CC(=O)O)C(=O)N[C@@H](C)C(=O)N[C@H](C(=O)N[C@@H](Cc1ccccc1)C(=O)N[C@H](C(=O)N[C@@H](CC(=O)O)C(=O)N[C@@H](CCC(N)=O)C(=O)N[C@@H](Cc1ccc(O)cc1)C(=O)N[C@H](C(=O)N[C@@H](CCCN)C(=O)N[C@@H](CC(C)C)C(=O)N[C@@H](CCCNC(=N)N)C(=O)NC(C)(C)C(=O)N[C@@H](CCC(N)=O)C(=O)N[C@@H](CC(C)C)C(=O)N[C@@H](C)C(=O)N[C@@H](C)C(=O)NC(C)(C)C(=O)N[C@@H](CCCN)C(=O)N[C@@H](Cc1ccc(O)cc1)C(=O)N[C@@H](CC(C)C)C(=O)N[C@@H](CCC(N)=O)C(=O)N[C@@H](CO)C(=O)N[C@H](C(=O)N[C@@H](CCCN)C(=O)N[C@@H](CCCN)C(=O)NCC(=O)NCC(=O)N1CCC[C@H]1C(=O)N[C@@H](CO)C(=O)N[C@@H](CO)C(=O)NCC(=O)N[C@@H](C)C(=O)N1CCC[C@H]1C(=O)N1CCC[C@H]1C(=O)N1CCC[C@H]1C(=O)N[C@@H](CO)C(=O)O)[C@@H](C)CC)[C@@H](C)O)[C@@H](C)O)C(C)C [Agonist P395] (Hexanoyl-HSDAVFTDQYT[Orn]LR[Aib]QLAA[Aib][Orn]YLQSI[Orn][Orn]GGPSSGAPPPS-OH; C-terminus assumed)	0.03	0.24	0.35	0.15	> 25000		
CCCCCC(=O)N[C@@H](Cc1c[nH]cn1)C(=O)N[C@@H](CO)C(=O)N[C@@H](CC(=O)O)C(=O)N[C@@H](C)C(=O)N[C@H](C(=O)N[C@@H](Cc1ccccc1)C(=O)N[C@H](C(=O)N[C@@H](CCC(=O)O)C(=O)N[C@@H](CCC(N)=O)C(=O)N[C@@H](Cc1ccc(OC)cc1)C(=O)N[C@H](C(=O)N[C@@H](CCCN)C(=O)N[C@@H](CC(C)C)C(=O)N[C@@H](CCCNC(=N)N)C(=O)NC(C)(C)C(=O)N[C@@H](CCC(N)=O)C(=O)N[C@H](C(=O)N[C@@H](C)C(=O)N[C@@H](C)C(=O)NC(C)(C)C(=O)N[C@@H](CCCN)C(=O)N[C@@H](Cc1ccc(O)cc1)C(=O)N[C@@H](CC(C)C)C(=O)N[C@@H](CCC(N)=O)C(=O)N[C@@H](CO)C(=O)N[C@H](C(=O)N[C@@H](CCCN)C(=O)N[C@@H](CCCN)C(=O)NCC(=O)NCC(=O)N1CCC[C@H]1C(=O)N[C@@H](CO)C(=O)N[C@@H](CO)C(=O)NCC(=O)N[C@@H](C)C(=O)N1CCC[C@H]1C(=O)N1CCC[C@H]1C(=O)N1CCC[C@H]1C(=O)N[C@@H](CO)C(N)=O)[C@@H](C)CC)C(C)C)[C@@H](C)O)[C@@H](C)O)C(C)C [Agonist P488] (Hexanoyl-HSDAVFTEQY(Me)T[Orn]LR[Aib]QVAA[Aib][Orn]YLQSI[Orn][Orn]GGPSSGAPPPS-NH2)	0.09	0.64	1.66	0.19		193.17	> 1000
